This note sets out measurements from patent US9340533B2, “1,4-benzothiazepine-1-oxide derivative and pharmaceutical composition utilizing the same” (priority 2009, dated 2016).

The subject of one series is chronic infarct rat. As to the kind of experiment: Norepinephrine-induced LV diastolic dysfunction in chronic infarct rat. The class given is in vivo. The text has this: Male Wistar rats were used. After induction of anesthesia with 3% isoflurane inhalation, a polyethylene tube was inserted into the trachea. Respiration was subsequently controlled with an artificial ventilator with maintenance of anesthesia using 1.7% isoflurane. The chest was opened at the left third intercostals space and the pericardial membrane was incised. The left anterior descending coronary artery (LAD) was completely ligated with silk string (6.0, Ethicon) in the infarction group. Following this procedure, the chest was immediately closed, the inserted tube in the trachea was removed, and subjects returned to the breeding room after arousal.
Two months after operation, animals were again anesthetized and intubated as described above. A micronanometer-tipped pressure catheter (2F, Millar Instruments) was inserted into the right common carotid artery into the left ventricle (LV) and a polyethylene catheter (SP10) for solution injection was inserted from the right femoral vein to infuse the physiological salt solution (PSS) or test compound solutions. After confirming stable hemodynamics for 10 minutes, 20 μg/kg/min of norepinephrine was infused for 30 minutes in the chronic infarction group. The invention compound [III] (0.1 mg/kg/min) and PSS were infused for 10 minutes after 20 minutes of administration of norepinephrine at 16.6 μL/min for test and control groups, respectively. LV minimum diastolic pressure and LV end-diastolic pressure was counted every minute for 20 heart beats. The area of myocardial infarction (infarction size) in rats was estimated using the modified method of Sandmann et al (J Cardiovasc Pharmacol 2000; 37; 64-77.) for administration of the compound of the present invention and PSS. That is, the infarct size (%) was estimated using the followed formula: […]
Data is shown as means and standard error. The following results are shown in Table 4 (control) and Table 5 (the compound), respectively.

In a further series the test system is normal rat. As to the kind of experiment: LV diastolic function in normal rat (LV catheter, i.v. infusion). Type of series: in vivo. As to conditions: 0.1 mg/kg/min i.v. infusion for 10 minutes, before administration set at 100%, mean and standard deviation. From the text: (1) After breeding for 1 week, male Wistar rats were anesthetized with 3% isoflurane inhalation, followed by an insertion of a tube in the trachea and respiration subsequently controlled with an artificial ventilator using 1.7% isoflurane for maintained anesthetization. A micrometer-tipped pressure catheter (Manufactured by 2F, Millar Instruments) was inserted from the right common carotid artery into the left ventricle (LV) and a polyethylene catheter (SP10) was inserted into the right femoral vein for the compound of the present invention or physiological salt solution (PSS) injections. After confirming stable hemodynamics for 10 minutes, LV minimum diastolic pressure and LV end-diastolic pressure was counted every minute. The compound [III] (0.1 mg/kg/min) of the present invention or PSS was infused at 16.6 μL/min for 10 minutes in the test and control groups, respectively.
LV minimum diastolic pressure and LV end-diastolic pressure was counted every minute for 20 heart beats before and after administration of the compound. […] Data is shown as mean and standard deviation.

Series [1] relates to Male Wistar rats. Kind of series: Comparison of heart rate, LV pressure and LV diastolic function (-dP/dt) in anesthetized rats. Type of series: in vivo, rat. To be noted: for Heart rate after administration / LV diastolic function (−dP/dt) after administration / LV pressure after administration: 0.3 mg/kg/min i.v. for 5 minutes, anesthetized rats; for LV diastolic function (−dP/dt) before administration / LV pressure before administration / Heart rate before administration: baseline of the same rats before infusion; for Heart rate before administration: four rats per group. The text has this: Male Wistar rats weighing 280-300 g were bred. After one week, animals were anesthetized with 3% isoflurane inhalation and respiration was subsequently controlled with an artificial ventilator using 1.7% isoflurane for maintained anesthetization. A micronanometer-tipped pressure catheter (2F, Millar Instruments) was inserted from the right common carotid artery into the left ventricle (LV) and a polyethylene catheter (SP10) for solution injection was inserted from the right femoral vein and the compounds [III] and [II] (R═H) were injected. After confirming stable hemodynamics for 10 minutes, heart rate, LV pressure, and maximal negative first derivative of LV pressure (−dP/dt) were investigated continuously. Each compound [III] or [II] was infused at 0.3 mg/kg/min for 5 minutes. Four rats in each group were evaluated. The solvent used consisted of 0.05% citric acid and 5% sorbitol. Each parameter before and after 5 minutes of administration was determined for 20 heart beats.

Series [2] deals with Male Wistar rats. As to the kind of experiment: Norepinephrine-induced hypertension in rats, LV pressure. Type of series: in vivo, rat. To be noted: under norepinephrine 20 μg/kg/min. The protocol:
Male Wistar rats weighing 260 g were anesthetized with 3% isoflurane inhalation and respiration was subsequently controlled with an artificial ventilator using 1.7% isoflurane for maintained anesthetization. A micronanometer-tipped pressure catheter (2F, Millar Instruments) was inserted from the right common carotid artery into the left ventricle (LV) and a polyethylene catheter (SP 10) for solution injection was inserted from the right femoral vein and test solutions were injected. After confirming stable hemodynamics for 10 minutes, norepinephrine (20 μg/kg/min) was infused for 10 minutes followed by the infusion of the invention compound [III] (0.1 mg/kg/min) for 10 minutes. This invention compound [III] was infused three times with intervals of 10 minutes each. LV pressure was determined for 20 heart beats before and after administration. The infusion speed of each solution was 16.6 μL/min.

Series [3] can be described thus: Stability of the compound at room temperature. To be noted: exposure to oxygen, humidity, acid and alkali at room temperature. Type of series: physicochemical.
A further series can be described thus: Solubility in solvents. Type of series: physicochemical. The text has this: The compound of the present invention, 3-4-benzylpiperidin-1-yl)propionyl-7-methoxy-2,3,4,5-tetrahydro-1,4-benzothiazepine-1-oxide, which is produced by an oxidation of the hydrochloride salt represented by formula [V] by the oxidant, isolated by silica gel chromatography using chloroform-methanol as a solvent, followed by removed the solvent from the chloroform-methanol solution by azeotropic distillation, and finally removed by the residual solvent in argon. The purity of compound presented by formula [III], thus obtained is 90% or higher, and a molecular weight (mw) of the compound is 440.61. […] The compound has stereoisomers in the amide form, is confirmed to exist at the rate of about 2:3 in of amide parts using H-NMR analysis at room temperature.

Series [4] relates to left anterior descending coronary artery of porcine heart. Kind of series: Coronary relaxation of KCl-contracted porcine coronary artery strip (organ bath). As to conditions: Sus scrofa, read-out: concentration inducing 50% of relaxation (EC50%).
Method: Porcine heart was purchased without regard of gender. The heart was carried in steep, cool Krebs-Henseleit solution, filled with 95% bubbling oxygen (O2) gas and bicarbonate (CO2) and the left anterior descending coronary artery of 2.5-3 mm diameter was removed. The artery was steeped in the same nutrition solution overnight in a refrigerator and the next day a specimen from a short strip removal in the endothelium (open ring) of width 3 mm was obtained. The specimen was hanged in 10 ml of the organ bath filled with Krebs-Henseleit solution, 95% bubbling oxygen (O2) and bicarbonate (CO2) at 37° C. One side was fixed and the other side was connected to the isometric transducer (T7-8-240, T7-30-240, Olientic) and the change of tension on the amplifier was used for tension recording. After confirming the state for 120 minutes under 1.5 g loading, KCl (40 mM) was added. When the contraction reached a maximum, KCl was washed out. This wash-out was repeated 4 times during the course of 15 minutes. After the stable contraction of KCl was obtained, KCl (30 mM) dissolved in saline was added. […] The Krebs-Henseleit solution without the compounds served as the control.
Setting [5] is: chronic infarct rat, baseline before norepinephrine infusion.
Setting [6] is: chronic infarct rat, norepinephrine 20 μg/kg/min infusion.
The mark [7] stands for this setting: chronic infarct rat under norepinephrine 20 μg/kg/min, 0.1 mg/kg/min infused 10 minutes, before administration set at 100%, mean and standard error.

Turning to `NC[C@H](O)c1ccc(O)c(O)c1` [Norepinephrine, norepinephrine], in the series on chronic infarct rat (setting [5]), the “LV end-diastolic pressure before administration of Norepinephrine” value is 6.5 ± 0.7 mmHg and the “LV minimum diastolic pressure before administration of Norepinephrine” value came to 4.5 ± 0.8 mmHg. Also, in the series with chronic infarct rat (setting [6]), the “LV end-diastolic pressure after administration of Norepinephrine” value turned out to be 25.8 ± 1.1 mmHg and the “LV minimum diastolic pressure after administration of Norepinephrine” value turned out to be 18.5 ± 1.2 mmHg.

`COc1ccc2c(c1)CN(C(=O)CCN1CCC(Cc3ccccc3)CC1)CC[S+]2[O-]` (stereo not drawn) [compound [III], 4-[3-(4-benzylpiperidin-1-yl)propionyl]-7-methoxy-2,3,4,5-tetrahydro-1,4-benzothiazepine-1-oxide]: in the series with normal rat, the “LV end-diastolic pressure after administration” value came to 78.4 ± 6.6% and the “LV minimum diastolic pressure after administration” value turned out to be 76.0 ± 5.2%. Besides, in the series with chronic infarct rat (setting [7]), the “LV end-diastolic pressure after administration” value came to 78.4 ± 6.6% and the “LV minimum diastolic pressure after administration” value is 76.0 ± 5.2%. Further, in the series with Male Wistar rats [1], the “Heart rate after administration” value is given as 360.9±29.1 beat/min, the “LV diastolic function (−dP/dt) after administration” value is on record as −5982.6±520.1 mmHg/sec, the “LV pressure after administration” value is given as 106.3±5.5 mmHg and the “LV diastolic function (−dP/dt) before administration” value is −5631.4±395.9 mmHg/sec. In the series on Male Wistar rats [1], the “LV pressure before administration” value turned out to be 106.0±5.8 mmHg and the “Heart rate before administration” value was found to be 361.7±26.5 beat/min. In addition, in the series with Male Wistar rats [2] (before compound infusion), the “LV pressure before administration” value is 189.2±14.0 mmHg. In the series with Male Wistar rats [2] (compound 0.1 mg/kg/min for 10 minutes, infused three times), the “LV pressure after administration” value stood at 180.3±14.9 mmHg. Besides, in series [3], the stability result is “stable against exposure of oxygen, humidity, acid and alkali at room temperature”. For the same compound, the solubility in solvents entry in the series “Solubility in solvents” was “easily dissolved in ethanol and dimethysulfoxide (DMSO)”. Besides, the skin irritation entry in “Skin irritation” is “irritating to the skin”. The EC50 in series [4] was 42 µM.

For the compound `COc1ccc2c(c1)CN(C(=O)CCN1CCC(Cc3ccccc3)CC1)CCS2` [compound [II] (R═H), 4-[3-(4-benzylpiperidin-1-yl)propionyl]-7-methoxy-2,3,4,5-tetrahydro-1,4-benzothiazepine, reference compound], in the series on Male Wistar rats [1], the “Heart rate after administration” value is 320.2±24.2 beat/min, the “LV diastolic function (−dP/dt) after administration” value is reported as −5311.0±961.4 mmHg/sec, the “LV pressure after administration” value was 100.8±6.0 mmHg and the “LV diastolic function (−dP/dt) before administration” value is listed as −5973.4±1121.3 mmHg/sec. In the series on Male Wistar rats [1], the “LV pressure before administration” value is 103.7±4.2 mmHg and the “Heart rate before administration” value was 370.1±18.9 beat/min.

For `COc1ccc2c(c1)CN(C(=O)CCN1CCC(Cc3ccc(O)cc3)CC1)CC[S+]2[O-]` (stereo not drawn) [compound [IV], 4-{3-[4-(4-hydroxybenzyl)piperadin-1-yl]propionyl}-7-methoxy-2,3,4,5-tetrahydro-1,4-benzothiazepine-1-oxide], the EC50 in series [4] amounted to 100 µM.
